Like-named read-outs stand apart in the source and are kept apart here.
Legend:
SF-539 = experiment: NCI 60 one dose screen; type: cell-based, human; settings: one dose; CNS Cancer; SF-539
RPMI-8226 = experiment: NCI 60 five dose screen; settings: Homo sapiens
glioblastoma (SF-295) = experiment: NCI 60 five dose screen
[1] = tested on: 60 different human tumor cell lines; experiment: NCI Development Therapeutics Program 60 cell line screen, one dose; type: cell-based
SF-295 = experiment: NCI 60 one dose screen; type: cell-based, human; settings: one dose; CNS Cancer; SF-295
NCI-H522 (NSCLC) = experiment: NCI 60 one dose screen; type: cell-based, human; settings: Non-small Cell Lung Cancer
SR = experiment: NCI 60 five dose screen; settings: Homo sapiens, SR
[2] = tested on: 60 different human tumor cell lines; settings: five dose

Compound: C[C@]12CCc3sc(Nc4ccc(F)cc4F)nc3C1=CC[C@@H]1[C@@H]2CC[C@]2(C)C(=O)CC[C@@H]12 [IIa.10, (1S,2R,13R,14S,18S)-7-(2,4-difluoroanilino)-2,18-dimethyl-6-thia-8-azapentacyclo[11.7.0.02,10.05,9.014,18]icosa-5(9),7,10-trien-17-one]
- Growth Percent (SF-539): 49.60%
- GI50 (RPMI-8226; RPMI-8226): 1.88 µM
- CC50 (RPMI-8226; RPMI-8226, read-out: LC50): > 100 µM
- CC50 (glioblastoma (SF-295); Homo sapiens, SF-295, read-out: LC50): > 100 µM
- TGI (glioblastoma (SF-295); SF-295 (CNS Cancer), five dose): >1.00E−4
- Growth Percent ([1]; Breast Cancer, BT-549): 59.58%
- Growth Percent ([1]; Breast Cancer, HS 578T): 55.28%
- Growth Percent ([1]; Breast Cancer, MCF7): 14.62%
- Growth Percent ([1]; Breast Cancer, MDA-MB-231/ATCC): 76.10%
- Growth Percent ([1]; Breast Cancer, MDA-MB-468): 23.25%
- Growth Percent ([1]; Breast Cancer, T-47D): 48.94%
- Growth Percent ([1]; CNS Cancer, SF-268): 70.67%
- Growth Percent ([1]; CNS Cancer, SNB-19): 74.13%
- Growth Percent ([1]; CNS Cancer, SNB-75): 69.43%
- Growth Percent ([1]; CNS Cancer, U251): 40.73%
- Growth Percent ([1]; Colon Cancer, COLO 205): 54.33%
- Growth Percent ([1]; Colon Cancer, HCC-2998): 71.64%
- Growth Percent ([1]; Colon Cancer, HCT-116): −23.35%
- Growth Percent ([1]; Colon Cancer, HT29): 30.06%
- Growth Percent ([1]; Colon Cancer, KM12): 57.14%
- Growth Percent ([1]; Colon Cancer, SW-620): 7.16%
- Growth Percent ([1]; Leukemia, CCRF-CEM): 10.07%
- Growth Percent ([1]; Leukemia, HL-60(TB)): 21.35%
- Growth Percent ([1]; Leukemia, K-562): 2.15%
- Growth Percent ([1]; Leukemia, MOLT-4): 3.63%
- Growth Percent ([1]; Leukemia, RPMI-8226): −20.85%
- Growth Percent ([1]; Leukemia, SR): .71%
- Growth Percent ([1]; Melanoma, LOX IMVI): −49.65%
- Growth Percent ([1]; Melanoma, M14): 57.76%
- Growth Percent ([1]; Melanoma, MALME-3M): 69.51%
- Growth Percent ([1]; Melanoma, MDA-MB-435): 51.52%
- Growth Percent ([1]; Melanoma, SK-MEL-2): 76.42%
- Growth Percent ([1]; Melanoma, SK-MEL-5): 76.86%
- Growth Percent ([1]; Melanoma, SK-MEL-28): 84.36%
- Growth Percent ([1]; Melanoma, UACC-62): 67.65%
- Growth Percent ([1]; Melanoma, UACC-257): 71.94%
- Growth Percent ([1]; Non-small Cell Lung Cancer, A549/ATCC): 61.70%
- Growth Percent ([1]; Non-small Cell Lung Cancer, EKVX): 78.36%
- Growth Percent ([1]; Non-small Cell Lung Cancer, HOP-62): 87.08%
- Growth Percent ([1]; Non-small Cell Lung Cancer, HOP-92): 77.08%
- Growth Percent ([1]; Non-small Cell Lung Cancer, NCI-H23): 66.21%
- Growth Percent ([1]; Non-small Cell Lung Cancer, NCI-H226): 84.23%
- Growth Percent ([1]; Non-small Cell Lung Cancer, NCI-H322M): 84.48%
- Growth Percent ([1]; Non-small Cell Lung Cancer, NCI-H460): 60.86%
- Growth Percent ([1]; Ovarian Cancer, IGROV1): 62.11%
- Growth Percent ([1]; Ovarian Cancer, NCI/ADR-RES): 67.57%
- Growth Percent ([1]; Ovarian Cancer, OVCAR-3): −4.15%
- Growth Percent ([1]; Ovarian Cancer, OVCAR-4): 66.68%
- Growth Percent ([1]; Ovarian Cancer, OVCAR-5): 91.77%
- Growth Percent ([1]; Ovarian Cancer, OVCAR-8): 45.20%
- Growth Percent ([1]; Ovarian Cancer, SK-OV-3): 84.10%
- Growth Percent ([1]; Prostate Cancer, DU-145): 24.05%
- Growth Percent ([1]; Prostate Cancer, PC-3): 52.88%
- Growth Percent ([1]; Renal Cancer, 786-0): −27.72%
- Growth Percent ([1]; Renal Cancer, A498): 77.80%
- Growth Percent ([1]; Renal Cancer, ACHN): 37.67%
- Growth Percent ([1]; Renal Cancer, CAKI-1): 38.44%
- Growth Percent ([1]; Renal Cancer, RXF 393): 5.60%
- Growth Percent ([1]; Renal Cancer, SN12C): 64.13%
- Growth Percent ([1]; Renal Cancer, TK-10): 50.24%
- Growth Percent ([1]; Renal Cancer, UO-31): 42.87%
- Growth Percent (SF-295): 50.99%
- Growth Percent (NCI-H522 (NSCLC)): 42.56%
- GI50 (SR): 2.9 µM
- CC50 (SR; read-out: LC50): > 100 µM
- TGI ([2]; A498 (Renal Cancer)): >1.00E−4
- TGI ([2]; A549/ATCC (Non-small Cell Lung Cancer)): >1.00E−4
- TGI ([2]; BT-549 (Breast Cancer)): >1.00E−4
- TGI ([2]; EKVX (Non-small Cell Lung Cancer)): >1.00E−4
- TGI ([2]; HS 578T (Breast Cancer)): >1.00E−4
- TGI ([2]; K-562 (Leukemia)): >1.00E−4
- TGI ([2]; MOLT-4 (Leukemia)): >1.00E−4
- TGI ([2]; NCI-H322M (Non-small Cell Lung Cancer)): >1.00E−4
- TGI ([2]; OVCAR-4 (Ovarian Cancer)): >1.00E−4
- TGI ([2]; OVCAR-5 (Ovarian Cancer)): >1.00E−4
- TGI ([2]; OVCAR-8 (Ovarian Cancer)): >1.00E−4
- TGI ([2]; SK-OV-3 (Ovarian Cancer)): >1.00E−4
- TGI ([2]; SNB-19 (CNS Cancer)): >1.00E−4
- TGI ([2]; U251 (CNS Cancer)): >1.00E−4

— patent publication US20250296953A1, “3,4-THIAZOLO-STEROIDS AND METHODS OF MAKING AND USING THE SAME” (Arkansas State University - Jonesboro, priority 2018, published 2025)
